Measured values taken from patent US7964560B2, “Hepatitis C virus inhibitors” (Bristol-Myers Squibb Company, priority 2008, dated 2011).
Read-outs that look alike come from different tables or passages of the source.

What was measured:
[1] = biological target: T1, HCV NS3/4A protease complex, BMS strain (UniProt P27958, species not given/STRAIN_BMS); assay: FRET peptide assay to monitor HCV NS3/4A proteolytic activity (BMS strain); type: biochemical, Hepatitis C virus (genotype 1a); conditions: Table 2, NS3/4A BMS strain
T1 construct: said of H77 and J4L6S; fused on or other part: three-lysine solubilising tail at the end of NS4A (printed for the H77 and J4L6S constructs; probably the same for BMS)
From the text: HCV […] protease complexes, derived from the BMS strain, H77 strain or J4L6S strain, were generated, as described below. These purified recombinant proteins were generated for use in a homogeneous assay (see below) to provide an indication of how effective compounds of the present disclosure would be in inhibiting HCV NS3 proteolytic activity.
Serum from an HCV-infected patient was obtained from Dr. T. Wright, San Francisco Hospital. An engineered full-length cDNA (compliment deoxyribonucleic acid) template of the HCV genome (BMS strain) was constructed from DNA fragments obtained by reverse transcription-PCR (RT-PCR) of serum RNA (ribonucleic acid) and using primers selected on the basis of homology between other genotype 1a strains. From the determination of the entire genome sequence, a genotype 1a was assigned to the HCV isolate according to the classification of Simmonds et al. (See Simmonds, P. et al., J. Clin. Microbiol., 31(6), 1493-1503 (1993)). […] The infectious clones, H77 (1a genotype) and J4L6S (1b genotype) were obtained from R. Purcell (NIH) and the sequences are published in GENBANK® (AAB67036, see Yanagi, M. et al., Proc. Natl. Acad. Sci. U.S.A., 94(16):8738-8743 (1997); AF054247, see Yanagi, M. et al., Virology, 244(1):161-172 (1998)).
The H77 and J4L6S strains were used for production of recombinant NS3/4A protease complexes. DNA encoding the recombinant HCV NS3/4A protease complex (amino acids 1027 to 1711) for these strains were manipulated as described by P. Gallinari et al. (see Gallinari, P. et al, Biochemistry, 38(17):5620-5632 (1999)). Briefly, a three-lysine solubilizing tail was added at the 3′-end of the NS4A coding region. The cysteine in the P1 position of the NS4A-NS4B cleavage site (amino acid 1711) was changed to a glycine to avoid the proteolytic cleavage of the lysine tag. Furthermore, a cysteine to serine mutation was introduced by PCR at amino acid position 1454 to prevent the autolytic cleavage in the NS3 helicase domain. The variant DNA fragment was cloned in the pET21b bacterial expression vector (Novagen) and the NS3/4A complex was expressed in Escherichia. coli strain BL21 (DE3) (Invitrogen) following the protocol described by P. Gallinari et al. (see Gallinari, P. et al., J. Virol., 72(8):6758-6769 (1998)) with modifications. Briefly, the NS3/4A protease complex expression was induced with 0.5 millimolar (mM) Isopropyl β-D-1-thiogalactopyranoside (IPTG) for 22 hours (h) at 20° C. A typical fermentation (1 Liter (L)) yielded approximately 10 grams (g) of wet cell paste. The cells were resuspended in lysis buffer (10 mL/g) consisting of 25 mM N-(2-hydroxyethyl)piperazine-N′-(2-ethane sulfonic acid) (HEPES), pH 7.5, 20% glycerol, 500 mM sodium chloride (NaCl), 0.5% Triton X-100, 1 microgram/milliliter (“μg/mL”) lysozyme, 5 mM magnesium chloride (MgCl2), 1 μg/ml DnaseI, 5 mM β-mercaptoethanol (βME), protease inhibitor-ethylenediamine tetraacetic acid (EDTA) free (Roche), homogenized and incubated for 20 minutes (min) at 4° C. The homogenate was sonicated and clarified by ultra-centrifugation at 235000 g for 1 hour (h) at 4° C. Imidazole was added to the supernatant to a final concentration of 15 mM and the pH adjusted to 8.0. The crude protein extract was loaded on a Nickel-Nitrilotriacetic acid (Ni-NTA) column pre-equilibrated with buffer B (25 mM HEPES, pH 8.0, 20% glycerol, 500 mM NaCl, 0.5% Triton X-100, 15 mM imidazole, 5 mM βME). The sample was loaded at a flow rate of 1 mL/min. The column was washed with 15 column volumes of buffer C (same as buffer B except with 0.2% Triton X-100). The protein was eluted with 5 column volumes of buffer D (same as buffer C except with 200 mM Imidazole).
NS3/4A protease complex-containing fractions were pooled and loaded on a desalting column Superdex-S200 pre-equilibrated with buffer D (25 mM HEPES, pH 7.5, 20% glycerol, 300 mM NaCl, 0.2% Triton X-100, 10 mM βME). Sample was loaded at a flow rate of 1 mL/min. […]

[2] = test system: HCV replicon in HUH-7 cells; assay: HCV replicon FRET assay; type: cell-based, Hepatitis C virus (strain 1b); conditions: Hepatitis C virus, Huh-7, Table 2, HCV replicon, replicon assay format not stated, read-out: EC50
From the text: An HCV replicon whole cell system was established as described by Lohmann, V. et al., Science, 285(5424):110-113 (1999). This system enabled us to evaluate the effects of our HCV Protease compounds on HCV RNA replication. Briefly, using the HCV strain 1b sequence described in the Lohmann paper (Accession number: AJ238799), an HCV cDNA was synthesized by Operon Technologies, Inc. (Alameda, Calif.), and the full-length replicon was then assembled in plasmid pGem9zf(+) (Promega, Madison, Wis.) using standard molecular biology techniques. The replicon consists of (i) the HCV 5′ UTR fused to the first 12 amino acids of the capsid protein, (ii) the neomycin phosphotransferase gene (neo), (iii) the IRES from encephalomyocarditis virus (EMCV), and (iv) HCV NS3 to NS5B genes and the HCV 3′ UTR. Plasmid DNAs were linearized with ScaI and RNA transcripts were synthesized in vitro using the T7 MegaScript transcription kit (Ambion, Austin, Tex.) according to manufacturer's directions. In vitro transcripts of the cDNA were transfected into the human hepatoma cell line, HUH-7. […] Resulting cell lines were characterized for positive and negative strand RNA production and protein production over time.
The HCV replicon FRET assay was developed to monitor the inhibitory effects of compounds described in the disclosure on HCV viral replication. HUH-7 cells, constitutively expressing the HCV replicon, were grown in Dulbecco's Modified Eagle Media (DMEM) (Gibco-BRL) containing 10% Fetal calf serum (FCS) (Sigma) and 1 mg/ml G418 (Gibco-BRL). Cells were seeded the night before (1.5×10^4 cells/well) in 96-well tissue-culture sterile plates. Compound and no compound controls were prepared in DMEM containing 4% FCS, 1:100 Penicillin/Streptomysin (Gibco-BRL), 1:100 L-glutamine and 5% DMSO in the dilution plate (0.5% DMSO final concentration in the assay). Compound/DMSO mixes were added to the cells and incubated for 4 days at 37° C. After 4 days, cells were first assessed for cytotoxicity using alamar Blue (Trek Diagnostic Systems) for a CC50 reading. The toxicity of compound (CC50) was determined by adding 1/10th volume of alamar Blue to the media incubating the cells. After 4 h, the fluorescence signal from each well was read, with an excitation wavelength at 530 nm and an emission wavelength of 580 nm, using the CYTOFLUOR® Series 4000 (Perspective Biosystems). Plates were then rinsed thoroughly with Phosphate-Buffered Saline (PBS) (3 times 150 μl). The cells were lysed with 25 μl of a lysis assay reagent containing an HCV protease substrate (5× cell Luciferase cell culture lysis reagent (PROMEGA® #E153A) diluted to 1× with distilled water, NaCl added to 150 mM final, the FRET peptide substrate (as described for the enzyme assay above) diluted to 10 μM final from a 2 mM stock in 100% DMSO. The plate was then placed into the CYTOFLUOR® 4000 instrument which had been set to 340 nm excitation/490 nm emission, automatic mode for 21 cycles and the plate read in a kinetic mode. EC50 determinations were carried out as described for the IC50 determinations.

T1 sequence (P27958 1027-1657, change not shown, one chain of several): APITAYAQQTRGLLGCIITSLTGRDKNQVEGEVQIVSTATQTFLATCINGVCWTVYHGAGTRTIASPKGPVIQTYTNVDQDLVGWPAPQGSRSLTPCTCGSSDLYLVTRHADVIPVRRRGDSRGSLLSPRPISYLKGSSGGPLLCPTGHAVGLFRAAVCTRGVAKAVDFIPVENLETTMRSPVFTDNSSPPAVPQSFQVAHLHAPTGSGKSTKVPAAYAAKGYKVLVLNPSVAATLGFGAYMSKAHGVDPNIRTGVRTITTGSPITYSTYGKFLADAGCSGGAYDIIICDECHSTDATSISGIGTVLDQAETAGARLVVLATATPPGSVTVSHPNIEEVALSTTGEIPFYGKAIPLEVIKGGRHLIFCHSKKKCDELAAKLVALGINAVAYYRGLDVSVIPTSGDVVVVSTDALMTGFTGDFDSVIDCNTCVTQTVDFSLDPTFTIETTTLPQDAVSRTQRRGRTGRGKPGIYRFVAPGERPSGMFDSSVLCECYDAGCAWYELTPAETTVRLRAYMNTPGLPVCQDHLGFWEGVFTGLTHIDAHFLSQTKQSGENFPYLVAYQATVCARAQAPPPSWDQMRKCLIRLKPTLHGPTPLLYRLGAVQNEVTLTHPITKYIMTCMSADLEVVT

Row | SMILES | IC50 ([1]; activity range) | EC50 ([2]; activity range) | IC50 ([1]; numeric values) | EC50 ([2]; numeric values)
1 | C=C[C@@H]1C[C@]1(NC(=O)[C@@H]1C[C@](c2ccc(-c3ccccc3)cc2)([S+]([O-])CCCC)CN1C(=O)[C@@H](NC(=O)OC(C)(C)C)C(C)(C)C)C(=O)NS(=O)(=O)C1CC1 (single isomer, unassigned) [Example 2] | 1 to 20 nM | 6 to 100 nM |  | 
2 | C=C[C@@H]1C[C@]1(NC(=O)[C@@H]1C[C@](c2ccc(-c3ccccc3)cc2)(S(=O)(=O)CCCC)CN1C(=O)[C@@H](NC(=O)OC(C)(C)C)C(C)(C)C)C(=O)NS(=O)(=O)C1CC1 (single isomer, unassigned) [Example 3] |  |  | 1 nM | 6.6 nM
3 | CCCCS[C@@]1(c2ccc(-c3ccccc3)cc2)C[C@@H](C(=O)N[C@]2(C(=O)NS(=O)(=O)C3CC3)C[C@H]2CC(F)F)N(C(=O)[C@@H](NC(=O)OC(C)(C)C)C(C)(C)C)C1 [Example 4, tert-butyl (S)-1-((2S,4R)-4-(biphenyl-4-yl)-4-(butylthio)-2-((1R,2S)-1-(cyclopropylsulfonylcarbamoyl)-2-(2,2-difluoroethyl)cyclopropylcarbamoyl)pyrrolidin-1-yl)-3,3-dimethyl-1-oxobutan-2-ylcarbamate] | 1 to 20 nM | 6 to 100 nM |  | 
4 | CCCCS[C@@]1(c2ccc(-c3ccccc3)cc2)C[C@@H](C(=O)N[C@]2(C(=O)NS(=O)(=O)C3CC3)C[C@H]2C2CC2)N(C(=O)[C@@H](NC(=O)OC(C)(C)C)C(C)(C)C)C1 [Example 5, tert-butyl (S)-1-((2S,4R)-4-(biphenyl-4-yl)-4-(butylthio)-2-((1S,2R)-2-(cyclopropylsulfonylcarbamoyl)bi(cyclopropan)-2-ylcarbamoyl)pyrrolidin-1-yl)-3,3-dimethyl-1-oxobutan-2-ylcarbamate] | 1 to 20 nM | 6 to 100 nM |  | 
5 | CCCCS[C@@]1(c2ccc(-c3ccccc3)cc2)C[C@@H](C(=O)N[C@]2(C(=O)NS(=O)(=O)C3CC3)C[C@H]2C(F)F)N(C(=O)[C@@H](NC(=O)OC(C)(C)C)C(C)(C)C)C1 [Example 6, tert-butyl (S)-1-((2S,4R)-4-(biphenyl-4-yl)-4-(butylthio)-2-((1R,2R)-1-(cyclopropylsulfonylcarbamoyl)-2-(difluoromethyl)cyclopropylcarbamoyl)pyrrolidin-1-yl)-3,3-dimethyl-1-oxobutan-2-ylcarbamate] |  |  | 2 nM | 18 to 36 nM
6 | CCCCS[C@@]1(c2ccc(-c3ccccc3)cc2)C[C@@H](C(=O)N[C@]2(C(=O)NS(=O)(=O)C3CC3)C[C@H]2C=C(F)F)N(C(=O)[C@@H](NC(=O)OC(C)(C)C)C(C)(C)C)C1 [Example 7, tert-butyl (S)-1-((2S,4R)-4-(biphenyl-4-yl)-4-(butylthio)-2-((1R,2S)-1-(cyclopropylsulfonylcarbamoyl)-2-(2,2-difluorovinyl)cyclopropylcarbamoyl)pyrrolidin-1-yl)-3,3-dimethyl-1-oxobutan-2-ylcarbamate] | 1 to 20 nM | 6 to 100 nM |  | 
7 | C=C[C@@H]1C[C@]1(NC(=O)[C@@H]1C[C@@](SC)(c2ccc(-c3ccccc3)cc2)CN1C(=O)[C@@H](NC(=O)OC(C)(C)C)C(C)(C)C)C(=O)NS(=O)(=O)C1CC1 [Example 8, tert-butyl (S)-1-((2S,4R)-4-(biphenyl-4-yl)-2-((1R,2S)-1-(cyclopropylsulfonylcarbamoyl)-2-vinylcyclopropylcarbamoyl)-4-(methylthio)pyrrolidin-1-yl)-3,3-dimethyl-1-oxobutan-2-ylcarbamate] | 1 to 20 nM | 6 to 100 nM |  | 
8 | C=C[C@@H]1C[C@]1(NC(=O)[C@@H]1C[C@@](SC(C)C)(c2ccc(-c3ccccc3)cc2)CN1C(=O)[C@@H](NC(=O)OC(C)(C)C)C(C)(C)C)C(=O)NS(=O)(=O)C1CC1 [Example 9, tert-butyl (S)-1-((2S,4R)-4-(biphenyl-4-yl)-2-((1R,2S)-1-(cyclopropylsulfonylcarbamoyl)-2-vinylcyclopropylcarbamoyl)-4-(isopropylthio)pyrrolidin-1-yl)-3,3-dimethyl-1-oxobutan-2-ylcarbamate] | 1 to 20 nM | 6 to 100 nM |  | 
9 | C=C[C@@H]1C[C@]1(NC(=O)[C@@H]1C[C@@](SC(C)C)(c2ccc(-c3ccccc3)cc2)CN1C(=O)[C@@H](NC(=O)OC(C)(C)C(F)(F)F)C(C)(C)C)C(=O)NS(=O)(=O)C1CC1 [Example 10, 1,1,1-trifluoro-2-methylpropan-2-yl (S)-1-((2S,4R)-4-(biphenyl-4-yl)-2-((1R,2S)-1-(cyclopropylsulfonylcarbamoyl)-2-vinylcyclopropylcarbamoyl)-4-(isopropylthio)pyrrolidin-1-yl)-3,3-dimethyl-1-oxobutan-2-ylcarbamate] | 1 to 20 nM | 6 to 100 nM |  | 
